Structures are written as SMILES. *1 amine or outer side, *2 acyl side, *3 side chain or, on linkers, in order; H or OH if unused. Where a SMILES comes first, the peptide text is derived from it. Bridges are numbered along the chain shown (N, C = ends). [ ]: non-standard residue; d: D form. The star is where a group is joined. Orn(4R-OH,5R-OCH2CH2NMe3+) = C[N+](C)(C)CCO[C@@H](N[*:3])[C@H](O)C[C@H](N[*:1])C(=O)[*:2]; pTerphenylCO(4''-OnC5H11) = CCCCCOc1ccc(-c2ccc(-c3ccc(C(=O)*)cc3)cc2)cc1; hTyr(3S-OH,4S-OH) = N[C@H](C(=O)O)[C@H](O)[C@@H](O)c1ccc(O)cc1; Pro(3S-OH,4S-Me) = C[C@H]1CN[C@H](C(=O)O)[C@H]1O; Hyp = O=C(O)[C@@H]1C[C@@H](O)CN1

For one data set, the system named is Candida dubliniensis. The conditions noted are these: CLSI MIC, neutropenic mouse, ref Lepak et al., 2019 (e01556-19), cited from earlier work. As for the experimental part:
(§1) TABLE 4 Nonclinical pharmacokinetic/pharmacodynamic targets, by species^a^,^b^,^c | column: Stasis / fAUC0–168h/MIC median; 1-Log drop / fAUC0–168h/MIC median || FIG 4 Probability of pharmacokinetic/pharmacodynamic target attainment for 400 mg rezafungin against Candida species using CLSI methodology. f, free. TEXT PRINTED IN THE PICTURE: no label printed: Candida albicans − fAUC/MIC Targets: CLSI Target: Stasis 20.5; Candida albicans − fAUC/MIC Targets: CLSI Target: 1-Log Drop in CFU 37.2; Candida glabrata − fAUC/MIC Targets: CLSI Target: Stasis 0.5; Candida glabrata − fAUC/MIC Targets: CLSI Target: 1-Log Drop in CFU 2.94; Candida parapsilosis − fAUC/MIC Targets: CLSI Target: Stasis 18.2; Candida auris − fAUC/MIC Targets: CLSI Target: Stasis 12.1; Can ...

Another data set relates to Candida tropicalis. The following applies: CLSI MIC, neutropenic mouse, ref Lepak et al., 2019 (e01556-19), cited from earlier work. As to the method:
as §1

Another data set has as its system Candida albicans. The following applies: CLSI MIC, neutropenic mouse, ref Lepak et al., 2018 (e02154-17), cited from earlier work. As for the experimental part:
as §1

The next data set has as its system Candida glabrata. The following applies: CLSI MIC, neutropenic mouse, ref Lepak et al., 2018 (e02154-17), cited from earlier work. As to the method:
as §1

The test system of another data set is Candida auris. The conditions noted are these: CLSI MIC, neutropenic mouse, published fAUC0–24 h/MIC target multiplied by 7, ref Lepak et al., 2018 (e01572-18), cited from earlier work. As for the experimental part: as §1
The conditions of data set [1]: mouse plasma; cited from earlier work. As to the method:
Using each simulated patient’s Bayesian PK parameters and dose amounts, simulations were performed to obtain plasma concentration profiles. […] For the purposes of target attainment analyses, AUC0–168h after the first dose was used (day 1). Protein binding of 99.2% in mouse plasma and of 97.4% in human (presumed healthy) plasma has been reported ([34]).

The nature of data set [2]: Population pharmacokinetic model of rezafungin (three-compartment, NONMEM) from plasma concentrations of Phase 1, 2 and 3 studies. The format is in vivo, human. As for the experimental part: Data from single- and multiple-dose studies in healthy volunteers and patients, with doses ranging from 50 to 1,400 mg, were included in the PK analysis. All doses of rezafungin were administered via IV infusion. The PK data set consisted of a total of 2,512 rezafungin concentration records from 277 subjects, of which five records were identified as below the lower limit of quantitation postdose and five other records were identified as above 50 µg/mL, which was the upper limit of quantitation. Those records together represent less than 0.5% of the observed concentrations and were excluded from the analysis.
Starting from the previously developed four-compartment PK model ([13]), structurally simpler two- and three-compartment models with IIV in various parameters were developed and compared. During the initial modeling exercise, eight additional records were identified as outliers using conditional weighted residuals greater than 5 or smaller than −5 as a criterion and were excluded from model development. […] The two other compartments were considered peripheral distribution compartments (V2 and V3). When IIVs in V2 and V3 were included in the model, it was recognized that the individual IIVs on V2 and V3 were highly correlated, and, in addition, the typical estimates of V2 and V3 were very similar. Therefore, a model with a shared IIV term and with a single shared parameter for V2 and V3 [peripheral volume (V23)] was tested. […] The estimation of a four-compartment model achieved a moderate improvement in the value of the objective function (VOF) (a decrease of 49 points). However, there was no discernible improvement in the goodness-of-fit model diagnostics, and the residual error was nearly identical. Therefore, the three-compartment structural model was considered to adequately describe the PK of rezafungin without overparameterization. The inclusion of IIV terms was tested on various PK parameters, including clearance (CL), central volume of distribution (V1), V23, intercompartmental clearance 1 (Q2), and intercompartmental clearance 2 (Q3). Interindividual variability terms on CL, V1, and V23 were sufficient to achieve good individual predictions. For the residual variability (RV), the constant coefficient of variation (CCV) and combined additive and proportional error models were tested.
The final PK model of rezafungin is a three-compartment model with first-order elimination, characterized by the parameters CL, V1, V23, Q2, and Q3. The variability model included IIV in V1, V23, and CL, their covariances, and a proportional RV model (Table 2). All fixed and random effect parameters, including those of the covariance terms, were estimated with reasonable precision (<39%RSE). The magnitudes of the IIV parameters were moderate for all parameters: 30.5 coefficient of variation expressed as a percent (%CV) for CL, 37.6%CV for V1, and 29.3%CV for V23. Eta shrinkage was low for all parameters (<11%), and the residual error was also low (9.74%CV).
Data were obtained from five Phase 1 studies (CD101.IV.1.01, CD101.IV.1.02, CD101.IV.1.06, CD101.IV.1.07, and CD101.IV.1.15), a Phase 2 study (CD101.IV.2.03; STRIVE), and a Phase 3 study (CD101.IV.3.05; ReSTORE) (Table S1). All study participants met the inclusion and exclusion criteria for the study in which they were enrolled. All clinical studies were conducted in compliance with International Council for Harmonisation guidelines on Good Clinical Practice.
Dosing regimens for rezafungin are described in Table S1. Data from both single- and multiple-dose studies, with doses ranging from 50 to 1,400 mg, were included in this analysis. All doses of rezafungin were administered via IV infusion.
Dense PK samples were collected in the Phase 1 studies, and a mixture of dense and sparse PK samples were collected in the Phase 2 and Phase 3 studies. […]

The mark [3] stands for this setting: final population PK model, population mean.
[4] abbreviates: final population PK model, population mean, covariate effect.

Turning to `CCCCCOc1ccc(-c2ccc(-c3ccc(C(=O)N[C@H]4C[C@@H](O)[C@@H](OCC[N+](C)(C)C)NC(=O)[C@@H]5[C@@H](O)[C@@H](C)CN5C(=O)[C@H]([C@@H](C)O)NC(=O)[C@H]([C@H](O)[C@@H](O)c5ccc(O)cc5)NC(=O)[C@@H]5C[C@@H](O)CN5C(=O)[C@H]([C@@H](C)O)NC4=O)cc3)cc2)cc1` [rezafungin] ({pTerphenylCO(4''-OnC5H11)}-[Orn(4R-OH,5R-OCH2CH2NMe3+)]T[Hyp][hTyr(3S-OH,4S-OH)]T[Pro(3S-OH,4S-Me)]; lactam 1-C), the “1-Log drop, fAUC0–168h/MIC median” value with Candida dubliniensis (1-log10 drop in CFU) was 228.3; in the data set on Candida tropicalis (1-log10 drop in CFU), 148.9; with Candida albicans (1-log10 drop in CFU), 37.2; with Candida glabrata (1-log10 drop in CFU), 2.94; in the data set on Candida auris (1-log10 drop in CFU), 38.4. The “Stasis, fAUC0–168h/MIC median” value with Candida dubliniensis (net fungal stasis) is 35.1; with Candida tropicalis (net fungal stasis), 86.5; with Candida albicans (net fungal stasis), 20.5; with Candida glabrata (net fungal stasis), 0.5; in the data set with Candida auris (net fungal stasis), 12.1. For the same compound, in data set [1], the Protein binding is 99.2%. Besides, the CL in data set [2] (BSA 1.3 m^2, based on the final model estimates) is on record as 0.235 L/h; in data set [2] (BSA 2.6 m^2, based on the final model estimates), 0.433 L/h. Also, the “lower CL in healthy subjects than infected subjects or those with hepatic impairment” value in data set [2] (final model estimates) is listed as 27.6%. The “Q2, Distribution clearance 1” value in data set [2] (setting [3]) is reported as 0.236 L/h. Moreover, the “Q3, Distribution clearance 2” value in data set [2] (setting [3]) is given as 12.4 L/h. Further, in data set [2] (final population PK model, population mean, BSA 1.9 m^2, ALB 3.2 g/dL), the “V23, Peripheral volume 1 and 2” value is 19.1 L. Also, the “CL, Central clearance” value in data set [2] (final population PK model, population mean, IV infusion, 277 subjects, typical value for disease state, BSA 1.9 m^2) was 0.328 L/h. Moreover, the “Exponent of (BSA/1.9) for V1” value in data set [2] (setting [4]) was 1.56. Also, the “Exponent of (BSA/1.9) for V23” value in data set [2] (setting [4]) is 1.17. In data set [2] (final population PK model, population mean, typical value for disease state, BSA 1.9 m^2), the “V1, Central volume” value came out at 17.7 L.

Values taken from publication PMC10720538, “Population pharmacokinetic modeling and target attainment analyses of rezafungin for the treatment of candidemia and invasive candidiasis” (Antimicrobial Agents and Chemotherapy, 2023).
